From BindingDB's records for patent US9145380 (Astrazeneca, 2015)

Target: T1, Prostaglandin E synthase (Homo sapiens, UniProt O14684)
T1 sequence (O14684 whole entry): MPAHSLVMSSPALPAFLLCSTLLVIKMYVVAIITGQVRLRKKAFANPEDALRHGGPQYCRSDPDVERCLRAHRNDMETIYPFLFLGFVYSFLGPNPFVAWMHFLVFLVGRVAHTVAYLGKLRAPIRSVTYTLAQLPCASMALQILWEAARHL
Experiment: Biochemical Assay
Settings: pH 6.8
Description: A solution of test compound was added to a diluted microsome preparation containing human mPGES-1 and pre-incubated for 15 minutes in potassium phosphate buffer pH 6.8 with cofactor glutathione (GSH). Corresponding solutions without test compound were used as positive controls, and corresponding solutions without test compound and without microsomes were used as negative controls. The enzymatic reaction was then started by addition of the substrate PGH2 in an organic solution (dry acetonitrile).The typical reaction conditions of the enzymatic reaction were thus: Test compound: ranging from 60 uM to 0.002 uM, or zero in positive and negative controls; potassium phosphate buffer pH 6.8: 50 mM; GSH: 2.5 mM; mPGES-1-containing microsomes: 2 ug/mL (sample and positive controls) or 0 ug/mL (negative control); PGH2: 10.8 uM; Acetonitrile: 7.7% (v/v); DMSO: 0.6% (v/v). The reaction was stopped after one minute by adding an acidic solution (pH 1.9) of ferric chloride.

IC50: 6.2 µM
SMILES: COc1ccc(Br)cc1/C=C/S(=O)(=O)Nc1ccc(C#CC(C)(C)O)cc1S(N)(=O)=O [US9145380, 179]
